Drawing on PubChem BioAssay AID330 (DTP/NCI, 2004), this text covers T/C for 18 compounds.

The test system of this test is P388 leukemia ip, CD2F1 mice, survival T/C. Kind of test: NCI In Vivo Anticancer Drug Screen. Data for tumor model P388 Leukemia (intraperitoneal) in CD2F1 (CDF1) mice. The conditions noted are these: endpoint: median survival time, higher = longer survival. Summed up:
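Mice carrying the transplanted tumor received test compound or vehicle. Survival was recorded in each group, and the value is the treated-group measurement divided by that of the vehicle-treated control group.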

The mark [1] stands for this setting: dose: 100.0 mg/kg/injection, schedule: Q04DX003 (ip), vehicle: saline with Tween-80.
[2] abbreviates: dose: 200.0 mg/kg/injection, schedule: Q04DX003 (ip), vehicle: saline with Tween-80.
[3] abbreviates: dose: 50.0 mg/kg/injection, schedule: Q01DX009 (ip), vehicle: saline with Tween-80.
[4] abbreviates: dose: 50.0 mg/kg/injection, schedule: Q01DX009 (ip), vehicle: saline.
Setting [5] is: dose: 50.0 mg/kg/injection, schedule: Q01DX005 (ip), vehicle: saline with Tween-80.
Setting [6] is: dose: 50.0 mg/kg/injection, schedule: Q01DX009 (ip), vehicle: Klucel (hydroxypropylcellulose) (HPC).
[7] abbreviates: dose: 100.0 mg/kg/injection, schedule: Q01DX009 (ip), vehicle: Klucel (hydroxypropylcellulose) (HPC).
[8] abbreviates: dose: 200.0 mg/kg/injection, schedule: Q01DX009 (ip), vehicle: Klucel (hydroxypropylcellulose) (HPC).
Setting [9] is: dose: 100.0 mg/kg/injection, schedule: Q01DX009 (ip), vehicle: saline with Tween-80.
Setting [10] is: dose: 12.5 mg/kg/injection, schedule: Q01DX009 (ip), vehicle: saline with Tween-80.
Where [11] appears, read: dose: 25.0 mg/kg/injection, schedule: Q01DX009 (ip), vehicle: saline with Tween-80.

“And” between values parts separate entries of the source, which are not always exact repeats. Equal values may be shown once. Toxic doses and inconclusive results are not listed.

On to `O=C(/C(=C/c1ccccc1)c1ccc(Cl)cc1)c1ccccc1`, for which the T/C runs as follows: under setting [1], 116 % of control; under setting [2], 100 % of control; (dose: 400.0 mg/kg/injection, schedule: Q04DX003 (ip), vehicle: saline with Tween-80) 103 % of control.
For the compound `CCN(CC)CCCC(C)Nc1cc(C)c2nc(C)cc(C)c2c1C` (stereo not drawn), the T/C (dose: 12.5 mg/kg/injection, schedule: Q01DX009 (ip), vehicle: saline) was 98 % of control; the T/C (dose: 25.0 mg/kg/injection, schedule: Q01DX009 (ip), vehicle: saline) is 97 % of control; the T/C under setting [3] was 100 % of control; the T/C under setting [4] is 90 % of control.
Turning to `COc1c2c(c(Cc3c4c(c(OC)c5c3OCO5)OC(C)C4)c3c1OCO3)CC(C)O2` (stereo not drawn), the T/C by setting is: (dose: 12.5 mg/kg/injection, schedule: Q01DX005 (ip), vehicle: saline with Tween-80) 96 % of control; (dose: 25.0 mg/kg/injection, schedule: Q01DX005 (ip), vehicle: saline with Tween-80) 94 % of control; under setting [5], 89 % of control and 95 % of control.
As for `O=C(NC(Cc1ccc(O)cc1)C(=O)O)c1ccccc1` (stereo not drawn), the T/C by setting is: under setting [5], 99 % of control; (dose: 100.0 mg/kg/injection, schedule: Q01DX005 (ip), vehicle: saline with Tween-80) 100 % of control; (dose: 200.0 mg/kg/injection, schedule: Q01DX005 (ip), vehicle: saline with Tween-80) 88 % of control.
Consider `CC(=O)OC1C(C)OC(OC(=O)C2CCC3C(C2)OC2(CC(OC(=O)/C=C/c4ccccc4)C(C)CO2)C32CO2)C(OC2OC(C)C(O)C(OC(C)=O)C2O)C1O` (stereo not drawn), for which the T/C is 97 % of control (dose: 0.62 mg/kg/injection, schedule: Q01DX009 (ip), vehicle: saline + alcohol); 97 % of control (dose: 0.75 mg/kg/injection, schedule: Q01DX005 (ip), vehicle: saline + alcohol); 105 % of control (dose: 1.25 mg/kg/injection, schedule: Q01DX009 (ip), vehicle: saline + alcohol); 106 % of control (dose: 1.5 mg/kg/injection, schedule: Q01DX005 (ip), vehicle: saline + alcohol); 113 % of control (dose: 1.67 mg/kg/injection, schedule: Q01DX009 (ip), vehicle: saline + alcohol); 104 % of control (dose: 1.75 mg/kg/injection, schedule: Q01DX009 (ip), vehicle: saline + alcohol). Further, the T/C is 105 % of control (dose: 2.5 mg/kg/injection, schedule: Q01DX009 (ip), vehicle: saline + alcohol); 114 % of control (dose: 3.0 mg/kg/injection, schedule: Q01DX005 (ip), vehicle: saline + alcohol); 108 % of control (dose: 3.5 mg/kg/injection, schedule: Q01DX009 (ip), vehicle: saline + alcohol); 106 % of control (dose: 5.0 mg/kg/injection, schedule: Q01DX009 (ip), vehicle: saline + alcohol); 115 % of control (dose: 6.0 mg/kg/injection, schedule: Q01DX005 (ip), vehicle: saline + alcohol); 152 % of control (dose: 6.68 mg/kg/injection, schedule: Q01DX009 (ip), vehicle: saline + alcohol). Further, the T/C is, setting by setting: (dose: 7.0 mg/kg/injection, schedule: Q01DX009 (ip), vehicle: saline + alcohol) 110 % of control; (dose: 13.35 mg/kg/injection, schedule: Q01DX009 (ip), vehicle: saline + alcohol) 111 % of control; (dose: 14.0 mg/kg/injection, schedule: Q01DX009 (ip), vehicle: saline + alcohol) 118 % of control.
Consider `COC(=O)C1C(=O)CC2N(C)C1C(C)(C)C2(C)C` (stereo not drawn), for which, under “dose: 120.0 mg/kg/injection, schedule: Q01DX005 (ip), vehicle: saline with Tween-80”, the T/C was 150 % of control.
As to `CC1CC2C(=S)NC(=O)C(c3ccccc3)=C2O1` (stereo not drawn), the T/C is 107 % of control under setting [6], 103 % of control under setting [7] and 100 % of control under setting [8].
Turning to `CCCCN(CCCC)CCCOC(=O)c1ccc2oc3ccc(C(=O)OCCCN(CCCC)CCCC)cc3c2c1`, the T/C runs as follows: under setting [3], 96 % of control; under setting [9], 103 % of control.
With `CN(C)c1nc(NO)nc(N(C)C)n1`, the T/C is, setting by setting: under setting [3], 103 % of control; under setting [9], 107 % of control; (dose: 200.0 mg/kg/injection, schedule: Q01DX009 (ip), vehicle: saline with Tween-80) 112 % of control.
On to `CN1CCN(CC2C3CCC(C3)C2O)CC1` (stereo not drawn), for which the T/C is 100 % of control (dose: 25.0 mg/kg/injection, schedule: Q01DX005 (ip), vehicle: saline); 97 % of control (dose: 50.0 mg/kg/injection, schedule: Q01DX005 (ip), vehicle: saline); 96 % of control (dose: 100.0 mg/kg/injection, schedule: Q01DX005 (ip), vehicle: saline); 99 % of control (dose: 200.0 mg/kg/injection, schedule: Q01DX005 (ip), vehicle: saline).
With `c1cnc2c(c1)Nc1cnncc1S2`, the T/C runs as follows: (dose: 100.0 mg/kg/injection, schedule: Q04DX002 (ip), vehicle: Klucel (hydroxypropylcellulose) (HPC)) 98 % of control; (dose: 200.0 mg/kg/injection, schedule: Q04DX002 (ip), vehicle: Klucel (hydroxypropylcellulose) (HPC)) 100 % of control; (dose: 400.0 mg/kg/injection, schedule: Q04DX002 (ip), vehicle: Klucel (hydroxypropylcellulose) (HPC)) 92 % of control.
Consider `CC1(C)Oc2cc3oc(C(=O)O)cc(=O)c3cc2-c2ccccc21`, for which the T/C runs as follows: under setting [4], 92 % of control; (dose: 100.0 mg/kg/injection, schedule: Q01DX009 (ip), vehicle: saline) 96 % of control; (dose: 200.0 mg/kg/injection, schedule: Q01DX009 (ip), vehicle: saline) 109 % of control.
For `COc1cc(OC)c2[nH]c3c(c(=O)c2c1)C(=O)c1[nH]c2c(OC)cc(OC)cc2c(=O)c1C3=O`, the T/C is 109 % of control under setting [6], 105 % of control under setting [7] and 108 % of control under setting [8].
`Cc1cc(-c2nc(-c3cc(C)c(O)c(C)c3)nc(-c3cc(C)c(O)c(C)c3)n2)cc(C)c1O`: the T/C was 100 % of control (dose: 50.0 mg/kg/injection, schedule: Q04DX003 (ip), vehicle: Klucel (hydroxypropylcellulose) (HPC)); 106 % of control (dose: 100.0 mg/kg/injection, schedule: Q04DX003 (ip), vehicle: Klucel (hydroxypropylcellulose) (HPC)); 105 % of control (dose: 200.0 mg/kg/injection, schedule: Q04DX003 (ip), vehicle: Klucel (hydroxypropylcellulose) (HPC)).
With `CC(=O)CC(C)=NCC(C)N=C(C)CC(C)=O` (stereo not drawn), the T/C (dose: 100.0 mg/kg/injection, schedule: Q04DX003 (ip), vehicle: saline) was 100 % of control; the T/C (dose: 200.0 mg/kg/injection, schedule: Q04DX003 (ip), vehicle: saline) was 100 % of control; the T/C (dose: 400.0 mg/kg/injection, schedule: Q04DX003 (ip), vehicle: saline) was 100 % of control.
Take `Cc1ccc(C(SCC(N)C(=O)O)(c2ccccc2)c2ccccc2)cc1` (stereo not drawn): the T/C runs as follows: under setting [10], 186 % of control; under setting [11], 168 % of control; (dose: 50.0 mg/kg/injection, schedule: Q04DX003 (ip), vehicle: saline with Tween-80) 177 % of control; under setting [1], 218 % of control; (dose: 132.0 mg/kg/injection, schedule: Q04DX003 (ip), vehicle: saline with Tween-80) 195 % of control; under setting [2], 254 % of control and 272 % of control. Where the note is “dose: 300.0 mg/kg/injection, schedule: Q04DX003 (ip), vehicle: saline with Tween-80”, the T/C was 263 % of control.
As for `O=C(O)c1c(Cl)n(-c2ccccc2)c2c(C(=O)O)cccc12`, the T/C is 97 % of control (dose: 100.0 mg/kg/injection, schedule: Q01DX001 (ip), vehicle: Klucel (hydroxypropylcellulose) (HPC)); 97 % of control (dose: 200.0 mg/kg/injection, schedule: Q01DX001 (ip), vehicle: Klucel (hydroxypropylcellulose) (HPC)); 97 % of control (dose: 400.0 mg/kg/injection, schedule: Q01DX001 (ip), vehicle: Klucel (hydroxypropylcellulose) (HPC)).
In the case of `CCCCCCCCCCCCCCCC(=O)NC(CCCCN)C(=O)NC(CCCCN)C(=O)OCC` (stereo not drawn), the T/C by setting is: under setting [10], 101 % of control; under setting [11], 106 % of control.
